In patent publication US9694073B2, “Small molecule inhibitors of polynucleotide kinase/phosphatase, poly(ADP-ribose) polymerase and uses thereof” (THE GOVERNORS OF THE UNIVERSITY OF ALBERTA, priority 2009, dated 2017):
Entries after “also recorded” stand apart in the source; their conditions may differ.

Experiments:
[1] = molecular target: T1, human PNKP (hPNKP) 3'-phosphatase activity (Homo sapiens, UniProt Q96T60); experiment: Fluorescence quenching-based screening assay for PNKP 3'-phosphatase activity; format: biochemical; details: 100 μM compound, 50 ng hPNKP
T1 construct: made in house; host or cells: bacteria (said only for the batch compared with aprataxin)
Experimental: The […] assay developed originally for protein kinases by QTL Biosystems (Santa Fe, N. Mex.) was modified. […] The TAMRA-labelled oligonucleotide lacking a 3'-phosphate served as a control. […] The assay was performed in 384-well white Optiplate microplates (PerkinElmer, Woodbridge, ON) in 70 mM Tris-HCl, pH 7.4, 60 mM MgCl2, 5 mM MnCl2, 0.3% BSA, 0.09% sodium azide. Reaction buffer was prepared by adding 1 mM DTT immediately prior to use. Five μL of 3'-phosphatase substrate (final concentration 0.5 μM) was used per well. In duplicate, 10 μl of each concentration of hPNKP was added per well. Plates were incubated for 1 hour at 37° C. and then 15 μl of 1× sensor solution (provided by QTL) was added to each well and incubated for 30 minutes at room temperature. Fluorescence (485 nm excitation and 520 nm emission wavelengths) of each well was read in a FLUOstar Optima® (BMG Labtech Inc, Durham, N.C.). Data were analyzed using GraphPad Prism® Software (San Diego, Calif.). […] Small molecules were provided in powder form and were dissolved in 100% DMSO and a final concentration of 100 μM was added to each well and assays were performed as described above. After obtaining an optimum calibration curve and enzyme concentration curve, a simplified form of the assay to test the library in a short time, was employed. One concentration of hPNKP, 50 ng, was tested and compared with the control well with no enzyme. The assay was conducted in the same way as described above with respect to oligonucleotides, buffer, controls, incubation lengths/temperatures, centrifugations and sensor addition. The fluorescence-based phosphatase assay adapted was originally developed to monitor protein phosphatase activity (34). This assay involves a fluorescent sensor molecule coated in trivalent metal cations which causes superquenching of the sensor signal when in close proximity to a dye (TAMRA) on the substrate. The sensor is brought close to TAMRA via the ionic bond formed between the terminal DNA phosphate and the trivalent metal cations on the sensor. Removal of the phosphate leads to an elevation of fluorescence because the sensor is not brought close enough to TAMRA for its signal to be quenched. […] Heat inactivated hPNKP was used as a control.

aprataxin (APTX) = molecular target: T2, aprataxin (APTX) (Homo sapiens, UniProt Q7Z2E3); experiment: 3'-DNA phosphatase activity of aprataxin; format: biochemical; details: 50 μM
T2 construct: made in house; host or cells: E. coli BL21-Gold (DE3), QIAgene expression construct (Qiagen)
Experimental: Human recombinant aprataxin (APTX) protein with an N-terminal 6× His tag was expressed in BL21-Gold (DE3) E. coli competent cells (Stratagene, La Jolla, Calif.) using the QIAgene expression construct (Qiagen, Mississauga, ON). A single colony of kanamycin resistant E. coli was used to inoculate a 200-ml overnight culture (e.g., about 12 to about 16 hours in Luria-Bertani (LB) media containing 30 μg/ml kanamycin. Four 50-ml fractions of overnight culture were then subcultured into 4×1 L LB without kanamycin. Once the culture reached an optical density of ˜0.6 at 600 nm, protein expression was induced using 0.2 mM isopropyl-1-thio-β-galactopyranoside (Sigma, St Louis, Mo.) at 37° C. for 2 hours. Cells were harvested by centrifugation at 10,000 rpm for 10 minutes at 4° C. and resuspended in 40 ml buffer (50 mM NaH2PO4, 250 mM NaCl, 1 mM PMSF, at pH 7.9). The solution was then stirred on ice for 30 minutes in the presence of 30 mg lysozyme and 4 mg PMSF, 1 μg/ml each of pepstatin and leupeptin. […] His-APTX concentration was then determined using the Bio-Rad Protein assay (Bio-Rad, Mississauga, ON).
It was also tested whether A12B4C3 could inhibit aprataxin, which is another human DNA 3′-phosphatase. For this experiment, the oligonucleotide substrate was incubated with equal quantities of the two enzymes that were purified from bacteria on the same day. […]

calcineurin = calcineurin (Rattus norvegicus, UniProt P63329); experiment: Calcineurin pNPP phosphatase assay; format: biochemical; details: concentration as high as 83.3 μM
Experimental: PP-1cγ and calcineurin activity was analyzed, using a colorimetric p-nitrophenol phosphate (pNPP) assay as previously described (33). The reaction were carried out in a 96-well microplate with a final volume of 60 μl containing 40 μl of pNPP assay buffer (50 mM Tris, pH 7.4, 0.1 mM EDTA, 30 mM MgCl2, 0.5 mM MnCl2, 1 mg/ml BSA, 0.2% β-mercaptoethanol), 0.03 μg PP-1cγ (specific activity>30 units per mg) or a catalytically equivalent quantity of calcineurin and 10 μl of 0.5 mM DNA 3′-phosphatase inhibitor sample in DMSO or 10 μl of 50 μM A12B4C3 sample in DMSO, or control solvent. After a 10-minute incubation at 37° C., 10 μl of 30 mM pNPP was added to each well and incubated for an additional of 60 minutes and 45 minutes for PP-1cγ and calcineurin, respectively. The absorbance at 405 nm was measured using a SOFTmax 2.35 microplate reader (Molecular Devices, Sunnyvale, Calif.).

[2] = molecular target: human PNKP phosphatase activity (Homo sapiens, UniProt Q96T60); experiment: PiColorlock Gold assay for 3'-phosphatase activity (release of inorganic phosphate)

T2 sequence (Q7Z2E3 whole entry): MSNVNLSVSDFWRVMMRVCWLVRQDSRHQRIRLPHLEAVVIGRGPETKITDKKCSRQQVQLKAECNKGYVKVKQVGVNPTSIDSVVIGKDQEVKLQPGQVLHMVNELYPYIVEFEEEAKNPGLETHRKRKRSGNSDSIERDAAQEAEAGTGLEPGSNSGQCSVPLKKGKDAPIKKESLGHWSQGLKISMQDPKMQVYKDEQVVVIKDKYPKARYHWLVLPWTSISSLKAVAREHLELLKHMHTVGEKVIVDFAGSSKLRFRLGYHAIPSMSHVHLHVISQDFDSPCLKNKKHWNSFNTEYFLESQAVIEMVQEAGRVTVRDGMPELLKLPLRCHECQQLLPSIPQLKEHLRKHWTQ

CCCCCCCCCCC(O)C1C=CC2C(=O)N(c3ccccc3)C(=O)C2N1Nc1ccc([N+](=O)[O-])cc1 (stereo not drawn) [Compound A12B4C3, 2-(1-hydroxyundecyl)-1-(4-nitrophenylamino)-6-phenyl-6,7a-dihydro-1H-pyrrolo[3,4-b]pyridine-5,7(2H,4aH)-dione]
inhibition of hPNKP phosphatase activity (substrate dephosphorylation) in the screening assay [1]: significant inhibition; also recorded: marked inhibition | inhibition of aprataxin phosphatase activity (aprataxin (APTX)): refractory | inhibition of calcineurin (calcineurin): Neither enzyme displayed inhibition; also recorded: no inhibition | concentration giving near maximal inhibition ([2]; PiColorLock Gold): 5 µM | potency rank among the five PNKP inhibitors ([2]; PiColorLock Gold, FIG. 4B): most potent | inhibition at 50 µM ([2]; read-out: inhibition of human PNKP): ~85%
